According to ChEMBL document CHEMBL1201862, “PubChem BioAssay data set” (2004):
Activity calls are given as the source filed them.

Experiments:
[1] = tested on: HEK293; experiment: inhibition of NOD1-driven NF-kB reporter – cell-based, luminescence, uHTS, primary screen (AID 1578); type: functional; conditions: Homo sapiens
[2] = reduction of Shn3 3'UTR-driven luciferase in osteoblasts – cell-based, Clone20 osteoblasts, firefly luciferase, cherry-picked, dose response (AID 624132); type: functional;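 also: firefly luciferase luminescence from reporter carrying the Shn3 3'UTR in osteoblasts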
[3] = tested on: HEK293; experiment: NOD2 signaling inhibitors in MDP-stimulated cells, cell-based, uHTS, luminescence (AID 2001); type: functional; conditions: Homo sapiens
[4] = THP-1 cell cytotoxicity, dose response, cytotoxicity control for non-replicating M. tuberculosis project (AID 489025); type: functional
[5] = tested on: HEK293; experiment: cells; type: functional, cell-based; conditions: Homo sapiens
[6] = biological target: T1, Hexokinase HKDC1 (Homo sapiens, UniProt Q2TB90); experiment: inhibition of HKDC1 glucose phosphorylation – biochemical, W721R variant, dose response (AID 504729); type: functional
T1 sequence (Q2TB90 whole entry): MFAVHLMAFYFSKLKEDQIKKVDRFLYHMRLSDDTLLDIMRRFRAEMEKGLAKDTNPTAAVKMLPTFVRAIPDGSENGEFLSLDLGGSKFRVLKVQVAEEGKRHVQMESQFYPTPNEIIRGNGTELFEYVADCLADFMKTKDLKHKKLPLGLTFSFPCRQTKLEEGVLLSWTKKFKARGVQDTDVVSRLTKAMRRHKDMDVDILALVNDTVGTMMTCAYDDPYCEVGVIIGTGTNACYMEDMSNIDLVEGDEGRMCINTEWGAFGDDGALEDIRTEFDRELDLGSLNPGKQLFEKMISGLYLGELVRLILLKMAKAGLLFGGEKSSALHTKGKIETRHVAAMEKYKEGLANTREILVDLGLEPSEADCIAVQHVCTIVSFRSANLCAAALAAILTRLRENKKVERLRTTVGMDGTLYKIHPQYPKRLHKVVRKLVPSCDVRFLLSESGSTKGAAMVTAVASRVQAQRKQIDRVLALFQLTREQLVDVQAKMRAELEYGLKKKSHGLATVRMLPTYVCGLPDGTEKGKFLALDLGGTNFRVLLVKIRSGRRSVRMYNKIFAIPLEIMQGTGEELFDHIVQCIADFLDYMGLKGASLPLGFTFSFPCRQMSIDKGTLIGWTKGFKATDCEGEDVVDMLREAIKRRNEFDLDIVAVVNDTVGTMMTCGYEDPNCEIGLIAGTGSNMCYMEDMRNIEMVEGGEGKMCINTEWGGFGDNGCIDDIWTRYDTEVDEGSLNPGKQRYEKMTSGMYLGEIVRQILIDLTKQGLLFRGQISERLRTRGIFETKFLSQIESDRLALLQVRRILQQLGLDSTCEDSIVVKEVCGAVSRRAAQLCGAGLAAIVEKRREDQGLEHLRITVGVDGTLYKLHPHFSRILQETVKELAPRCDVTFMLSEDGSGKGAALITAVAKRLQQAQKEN

[7] = Luminescence Cell-Based Dose Retest to Confirm Inhibitors of Cancer Stem Cells. [Related pubchem assays (depositor defined):AID2717, AID2721]; type: functional; conditions: Homo sapiens
[8] = loss of viability in HepG2 cells – cell-based, CellTiter-Glo, cherry-picked, cytotoxicity control for Shn3 inhibitor project, dose response (AID 624134); type: functional
[9] = cells; type: functional
[10] = Vero E6 cell cytotoxicity, dose response, cytotoxicity control for non-replicating M. tuberculosis project, secondary assay (AID 492998); type: functional, VeroE6; conditions: Vero C1008
[11] = non-specific 3'UTR reporter inhibition in Clone20-Shn3RL – cell-based, Renilla luciferase, cherry-picked, counter-screen for Shn3 inhibitor project, dose response (AID 624133); type: functional
[12] = tested on: HEK293; experiment: cells; type: functional, cell-based; conditions: Homo sapiens; remark: listed apart in the source
[13] = microbe, parasite or virus in culture; type: functional; conditions: Mycobacterium tuberculosis
[14] = Luminescent dose response cell-based high throughput screening assay for inhibitors of the Janus kinase 2 mutant JAK2V617F. [Related pubchem assays: 1446 (Primary screen.), 1521 (Confirmation assay.), 1486 (Counter screen.)]; type: functional
[15] = tested on: HEK293; experiment: cells; conditions: Homo sapiens
[16] = tested on: HEK293; experiment: cells; conditions: Homo sapiens; remark: listed apart in the source
[17] = cells
[18] = tested on: Vero; experiment: cells; type: functional, cell-based; conditions: Chlorocebus sabaeus
[19] = viability of uninfected HEp-2 cells – cell-based, HTS, cytotoxicity control for RSV inhibitor project, dose response (AID 2410); type: functional; conditions: human respiratory syncytial virus
[20] = decrease of insulin promoter-GFP reporter – imaging, high-content screening, mouse beta cells (AID 1628); type: functional; conditions: MIN6
[21] = MIN6 cell viability loss – mouse insulinoma, cytotoxicity control, dose response (AID 2122); type: functional;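 also: confirmatory high-throughput counterscreen run to flag cytotoxic compounds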

For `Cc1nc([N+](=O)[O-])c(Br)n1CC(=O)c1ccc2ccccc2c1`, the EC50 [1] was 17.6 µM (active), the AC50 [2] was 10.7 µM (active) and the IC50 [3] was 3.77 µM (active). The CC50 [4] was 17.4 µM (active), the IC50 [5] was 3.46 µM (active) and the IC50 [6] was 20.6 µM (inactive). For the same compound, the AC50 [7] was 4.44 µM (active), the AC50 [8] was 63.7 µM (active) and the IC50 [9] was 10.1 µM (active). The CC50 [10] was 16.3 µM (active), the AC50 [11] was 3.22 µM (active) and the IC50 [12] was > 20 µM (inactive). For the same compound, the CC50 [13] was 16 µM (active) and the IC50 [14] was 1.88 µM (active).
With `CC(C)(C)N1C(=O)[C@H]2[C@@H](c3ccc(Br)cc3)N3C(=O)N(c4ccccc4)C(=O)[C@@]3(Cc3ccccc3)[C@H]2C1=O` the EC50 [15] was > 59.6 µM (inactive) and the EC50 [16] was > 59.6 µM (inactive).
With `Cc1cc(C(C)(C)C)cc(C)c1CCNC(=O)c1ccc[n+]([O-])c1` the IC50 [17] was 38 µM (active), the IC50 [18] was > 25 µM (active) and the CC50 [19] was 38.3 µM (active).
With `Cc1cc(NC(=O)CCc2ccc(S(=O)(=O)N3CCOCC3)cc2)n(-c2ccccc2)n1` the IC50 [20] was 2 µM (active) and the IC50 [21] was 1.53 µM (active).
